PMC2628307 (Journal of the American Chemical Society, 2008)
Where “and” joins values, the source holds several entries; their conditions need not be identical. Equal values may be shown once. Where a name gives a salt, the structure may show the parent alone. Read-outs that look alike come from different tables or passages of the source.

Tests used:
PP1γ [1] = biological target: T1, PP1γ (Homo sapiens, UniProt P36873); type: biochemical; settings: for activity as PP1γ substrate: pH 8
[2] = tested on: native PTPs YopH, VHR, and PTP1; settings: cited from earlier work
[3] = Dianion H2O attack, 95° C; cited from earlier work
PP1 [4] = biological target: PP1 (Homo sapiens, UniProt P36873); experiment: Kinetic isotope effects of PP1-catalyzed hydrolysis; type: biochemical; settings: 25 °C, pH 7.0
Sequence of PP1 (Homo sapiens, UniProt P36873) (P36873 whole entry): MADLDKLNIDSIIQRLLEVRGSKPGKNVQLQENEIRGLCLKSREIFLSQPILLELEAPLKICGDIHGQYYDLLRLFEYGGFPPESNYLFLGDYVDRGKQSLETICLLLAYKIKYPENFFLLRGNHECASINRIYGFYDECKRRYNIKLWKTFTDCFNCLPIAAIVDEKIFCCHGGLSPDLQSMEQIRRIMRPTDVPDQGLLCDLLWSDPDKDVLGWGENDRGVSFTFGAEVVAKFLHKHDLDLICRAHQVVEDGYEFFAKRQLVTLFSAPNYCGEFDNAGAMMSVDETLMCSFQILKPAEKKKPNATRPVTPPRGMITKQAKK

PP1 H125A mutant = PP1 H125A mutant (Homo sapiens, UniProt P36873, H125A); experiment: 4NPP hydrolysis by PP1 H125A mutant; type: biochemical
Sequence of PP1 H125A mutant (P36873 2-323 H125A): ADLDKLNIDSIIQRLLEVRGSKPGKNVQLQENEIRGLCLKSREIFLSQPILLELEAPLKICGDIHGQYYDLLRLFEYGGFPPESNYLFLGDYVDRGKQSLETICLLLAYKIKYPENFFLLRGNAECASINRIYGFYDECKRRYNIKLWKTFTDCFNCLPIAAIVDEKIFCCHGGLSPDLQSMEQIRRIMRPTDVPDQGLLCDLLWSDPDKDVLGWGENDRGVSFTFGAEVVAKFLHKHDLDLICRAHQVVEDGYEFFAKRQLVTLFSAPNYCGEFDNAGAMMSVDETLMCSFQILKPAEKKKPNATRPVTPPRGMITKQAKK

[5] = 25 °C; cited from earlier work
calcineurin = settings: cited from earlier work
PP1 [6] = settings: tighter binding peptide substrate; cited from earlier work
alkaline phosphatase = settings: cited from earlier work
PP1γ [7] = biological target: T1, PP1γ

T1 sequence (P36873 whole entry): as the sequence (P36873 whole entry) above

Structure (SMILES): COP(=O)(O)Oc1ccc([N+](=O)[O-])cc1 [4-nitrophenyl methyl phosphate]
- activity as PP1γ substrate (PP1γ [1]): significant activity

Structure (SMILES): O=[N+]([O-])c1ccc(OP(=O)(O)O)cc1 [4NPP, 4-nitrophenyl phosphate]
- ^15k [2]: 0.9999-1.0001
- ^18knonbridge [2]: 0.9998-1.0003 and 1.0118-1.0152
- ^18knonbridge per atom [2]: 0.9999-01.0001
- change in rate of hydrolysis with viscosigens (PP1γ [1]; 20% sucrose or glycerol): no changes
- ^15k [3]: 1.0028(2)
- ^18knonbridge [3]: 0.9994 (5)
- ^18knonbridge per atom [3]: 0.9998 (5)
- ^18knonbridge (PP1 [4]): 0.9959 (4)
- ^18knonbridge per atom (PP1 [4]): 0.9986 (4)
- activity for 4NPP hydrolysis (PP1 H125A mutant): no detectable activity
- pseudo-first order rate constant of water reaction of the dianion [5]: 2e-09 s⁻¹
- ^18(V/K)nonbridge (calcineurin; calcineurin with Mg^2+ at the active site): 0.9910
- ^18(V/K)nonbridge (calcineurin; calcineurin with Mn^+2 at the active site): 0.9942

Structure (SMILES): O=[N+]([O-])c1ccc(OS(=O)(=O)O)cc1 [4-nitrophenyl sulfate]
- activity as PP1γ substrate (PP1γ [1]): little activity

Structure (SMILES): O=P(O)(O)O [inorganic phosphate]
- Ki (PP1 [6]): 1600 ± 900 µM
- Ki (alkaline phosphatase): ~1 µM
- Ki (PP1γ [7]; pH 8, 4NPMP hydrolysis, compared with Ki for the 4NPP reaction): same Ki
- Ki (PP1γ [7]; pH 8.0, 4NPP hydrolysis, competitive inhibition, equation 2): 1200 ± 200 µM

Structure (SMILES): O=[N+]([O-])c1ccc(OP(O)(O)=S)cc1 [4-nitrophenyl thiophosphate]
- activity as PP1γ substrate (PP1γ [1]): little activity

Structure (SMILES): O=[N+]([O-])c1ccc(O)cc1 [4-nitro, p-nitrophenol]
- pKa (physchem): 7.01
